Patent US20240116951A1, “HETEROCYCLIC COMPOUNDS AND USES THEREOF” (Kumquat Biosciences Inc., priority 2022, published 2024)
Read-outs that look alike come from different tables or passages of the source.

Columns and labels:
Assay type in all cases: binding
KRAS WT = molecular target: T1, KRAS WT (Homo sapiens, UniProt P01116); assay: HTRF assay of wildtype K-Ras interaction with SOS1 (PPI-HTRF)
T1 construct: made in house; host or cells: E. coli, e.g. BL21 (DE3)
Source text: (§1) This assay can be also used to assess a selective inhibition or reduction of signaling output of a mutant Ras protein relative to a wildtype, or relative to a different mutant Ras protein. For example, the equilibrium interaction of wildtype Kras or K-Ras mutant (e.g., wildtype or a mutant thereof including those mentioned in Example 4) with SOS1 (e.g., hSOS1) can be assessed as a proxy or an indication for a subject compound's ability to bind and inhibit Ras protein. HTRF assay detects from (i) a fluorescence resonance energy transfer (FRET) donor (e.g., antiGST-Europium) that is bound to GST-tagged K-Ras mutant to (ii) a FRET acceptor (e.g., anti-6His-XL665) bound to a His-tagged hSOS1.
(§2) The assay buffer can contain ˜5 mM HEPES pH 7.4, ˜150 mM NaCl, ˜1 mM DTT, 0.05% BSA and 0.0025% (v/v) Igepal. A Ras working solution is prepared in an assay buffer containing typically a suitable amount of the protein construct (e.g., GST-tagged K-Ras mutant) and the FRET donor (e.g., antiGST-Eu(K) from Cisbio, France). A SOS1 working solution is prepared in an assay buffer containing suitable amount of the protein construct (e.g., His-hSOS1) and the FRET acceptor (e.g., anti-6His-XL665 from Cisbio, France). A suitable amount of the protein construct will depend on the range of activity or range of IC50 values being detected or under investigation. For detecting IC50 within a range of 500 nM, the protein constructs of the same range of molarity can be utilized. […] A fixed volume of DMSO with or without test compound is transferred into a 384-well plate. Ras working solution is added to all wells of the test plate. SOS1 working solution is added to all wells except for those that are subsequently filled the inhibitor control solution. Upon incubation for about 10 minutes or longer, the fluorescence is measured with a M1000Pro plate reader (Tecan) using HTRF detection (excitation 337 nm, emission 1: 620 nm, emission 2: 665 nm). Compounds are tested in duplicates at different concentrations (for example, 10 μM, 2.5 μM, 0.63 μM, 0.16 μM, 0.04 μM, 0.01 μM test compound). The ratiometric data (i.e., emission 2 divided by emission 1) is used to calculate IC50 values against Ras using GraphPad Prism (GraphPad software). Following this general procedure, samples were tested with or without a subject compound disclosed herein including compounds exemplified in Table 1 to assess their abilities to inhibit a mutant K-Ras relative to another mutant K-Ras or wildtype K-Ras. Signaling output measured in terms of IC50 values can be obtained, a ratio of IC50 against one mutant relative to another mutant can be calculated. For instance, a selective reduction of K-Ras G12D signaling output can be evidenced by a ratio greater than one. In particular, a selective reduction of K-Ras G12D signaling relative to K-Ras WT signaling is evidenced as the ratio of IC50 (against K-Ras WT) to IC50 (against K-Ras G12D) is greater than 1.

KRAS G12D = molecular target: T2, KRAS G12D (Homo sapiens, UniProt P01116, G12D); assay: HTRF assay of K-Ras G12D interaction with SOS1 (PPI-HTRF)
T2 construct: made in house; host or cells: E. coli, e.g. BL21 (DE3)
T2 sequence (P01116 1-188 isoform P01116-2 G12D): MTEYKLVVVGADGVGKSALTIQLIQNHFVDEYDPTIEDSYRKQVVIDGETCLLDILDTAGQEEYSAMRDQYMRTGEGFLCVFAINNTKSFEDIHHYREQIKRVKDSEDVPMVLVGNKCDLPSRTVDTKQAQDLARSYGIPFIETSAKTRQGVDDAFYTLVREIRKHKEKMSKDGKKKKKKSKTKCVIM
Source text: as §1, §2

KRAS G12S = molecular target: T3, KRAS G12S (Homo sapiens, UniProt P01116, G12S); assay: HTRF assay of K-Ras G12S interaction with SOS1 (PPI-HTRF)
T3 construct: made in house; host or cells: E. coli, e.g. BL21 (DE3)
T3 sequence (P01116 1-188 isoform P01116-2 G12S): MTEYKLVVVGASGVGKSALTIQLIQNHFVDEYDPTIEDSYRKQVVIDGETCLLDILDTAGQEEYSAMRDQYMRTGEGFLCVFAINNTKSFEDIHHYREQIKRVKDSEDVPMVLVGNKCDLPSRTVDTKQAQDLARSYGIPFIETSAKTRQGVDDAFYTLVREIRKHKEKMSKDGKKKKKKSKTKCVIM
Source text: as §1, §2

[1] = HTRF, 5 nM KRAS WT, read-out: PPI-HTRF-5 nM KRAS WT
[2] = HTRF, 5 nM KRAS G12D, read-out: PPI-HTRF-5 nM KRAS G12D
[3] = 5 nM KRAS G12S, read-out: PPI-HTRF-5 nM KRAS G12S

T1 sequence (P01116 1-188 isoform P01116-2): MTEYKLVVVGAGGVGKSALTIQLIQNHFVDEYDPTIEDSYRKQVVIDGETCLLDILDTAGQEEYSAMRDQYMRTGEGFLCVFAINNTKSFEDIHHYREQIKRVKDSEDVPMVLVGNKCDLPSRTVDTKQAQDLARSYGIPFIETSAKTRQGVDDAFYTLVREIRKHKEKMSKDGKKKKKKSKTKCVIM

SMILES	IC50 (KRAS WT; [1]) [µM]	IC50 (KRAS G12D; [2]) [µM]	IC50 (KRAS G12S; [3]) [µM]	IC50 (KRAS WT) [µM]	IC50 (KRAS G12D) [µM]	IC50 (KRAS G12S; PPI-HTRF-5 nM KRAS G12S) [µM]
N#Cc1c(N)sc2c(F)ccc(-c3c(Cl)cc4c(N5CCC6(CCN6C(=O)n6nccc6C#N)C5)nc(OC[C@@]56CCCN5C[C@H](F)C6)nc4c3F)c12 (stereo partly drawn) [Compound 290, 1-(6-(7-(2-amino-3-cyano-7-fluorobenzo[b]thiophen-4-yl)-6-chloro-8-fluoro-2-(((2R,7aS)-2-fluorotetrahydro-1H-pyrrolizin-7a(5H)-yl)methoxy)quinazolin-4-yl)-1,6-diazaspiro[3.4]octane-1-carbonyl)-1H-pyrazole-5-carbonitrile]	< 5	< 5	< 5			
CN(C)C1CN(c2nc(N3CCC4(CCN4C(=O)n4cncn4)C3)c3cc(Cl)c(-c4ccc(F)c5sc(N)c(C#N)c45)c(F)c3n2)C1 (stereo not drawn) [Compound 203, 4-(4-(1-(1H-1,2,4-triazole-1-carbonyl)-1,6-diazaspiro[3.4]octan-6-yl)-6-chloro-2-(3-(dimethylamino)azetidin-1-yl)-8-fluoroquinazolin-7-yl)-2-amino-7-fluorobenzo[b]thiophene-3-carbonitrile]	< 5	> 5	< 5			
N#Cc1c(NC(=O)C2CC2(F)F)sc2c(F)ccc(-c3c(F)c4nc(OC[C@@]56CCCN5C[C@H](F)C6)nc(N5CCC6(CCN6C(=O)C6CC6(F)F)C5)c4c(=O)n3C3CC3)c12 (stereo partly drawn) [Compound 343, N-(3-cyano-4-(6-cyclopropyl-4-(1-(2,2-difluorocyclopropane-1-carbonyl)-1,6-diazaspiro[3.4]octan-6-yl)-8-fluoro-2-(((2R,7aS)-2-fluorotetrahydro-1H-pyrrolizin-7a(5H)-yl)methoxy)-5-oxo-5,6-dihydropyrido[4,3-d]pyrimidin-7-yl)-7-fluorobenzo[b]thiophen-2-yl)-2,2-difluorocyclopropane-1-carboxamide]	< 5	< 5	< 5			
N#Cc1c(N)sc2c(F)ccc(-c3c(Cl)cc4c(N5CCC6(CCN6C(=O)Oc6ccc([N+](=O)[O-])cc6)C5)nc(OC[C@@]56CCCN5C[C@H](F)C6)nc4c3F)c12 (stereo partly drawn) [Compound 298, 4-nitrophenyl 6-(7-(2-amino-3-cyano-7-fluorobenzo[b]thiophen-4-yl)-6-chloro-8-fluoro-2-(((2R,7aS)-2-fluorotetrahydro-1H-pyrrolizin-7a(5H)-yl)methoxy)quinazolin-4-yl)-1,6-diazaspiro[3.4]octane-1-carboxylate]				< 5	< 5	< 5
C[C@H](Oc1nc(N2CCC3(CCN3C(=O)C3CC3(F)F)C2)c2cc(Cl)c(-c3ccc(F)c4sc(N)c(C#N)c34)c(F)c2n1)[C@@H]1CCCN1C (stereo partly drawn) [Compound 280, 2-amino-4-(6-chloro-4-(1-(2,2-difluorocyclopropane-1-carbonyl)-1,6-diazaspiro[3.4]octan-6-yl)-8-fluoro-2-((S)-1-((S)-1-methylpyrrolidin-2-yl)ethoxy)quinazolin-7-yl)-7-fluorobenzo[b]thiophene-3-carbonitrile]	< 5	< 5	< 5			
N#Cc1c(N)sc2c(F)ccc(-c3c(Cl)cc4c(N5CCC6(CC5)CCN6C(=O)C5CC5(F)F)nc(OC[C@@]56CCCN5C[C@H](F)C6)nc4c3F)c12 (stereo partly drawn) [Compound 342, 2-amino-4-(6-chloro-4-(1-(2,2-difluorocyclopropane-1-carbonyl)-1,7-diazaspiro[3.5]nonan-7-yl)-8-fluoro-2-(((2R,7aS)-2-fluorotetrahydro-1H-pyrrolizin-7a(5H)-yl)methoxy)quinazolin-7-yl)-7-fluorobenzo[b]thiophene-3-carbonitrile]	< 5	< 5	< 5			
C[C@H](Oc1nc(N2CCC3(CCN3C(=O)n3cncn3)C2)c2cc(Cl)c(-c3ccc(F)c4sc(N)c(C#N)c34)c(F)c2n1)[C@@H]1CCCN1C (stereo partly drawn) [Compound 207, 4-(4-(1-(1H-1,2,4-triazole-1-carbonyl)-1,6-diazaspiro[3.4]octan-6-yl)-6-chloro-8-fluoro-2-((S)-1-((S)-1-methylpyrrolidin-2-yl)ethoxy)quinazolin-7-yl)-2-amino-7-fluorobenzo[b]thiophene-3-carbonitrile]	< 5	< 5	< 5			
N#Cc1c(N)sc2c(F)ccc(-c3c(Cl)cc4c(N5CCCC6(CCN6)C5)nc(OC[C@@]56CCCN5C[C@H](F)C6)nc4c3F)c12 (stereo partly drawn) [Compound 236, 2-amino-4-(6-chloro-8-fluoro-2-(((2R,7aS)-2-fluorotetrahydro-1H-pyrrolizin-7a(5H)-yl)methoxy)-4-(1,6-diazaspiro[3.5]nonan-6-yl)quinazolin-7-yl)-7-fluorobenzo[b]thiophene-3-carbonitrile]	< 5	< 5	< 5			

Further lines, with some results ahead:

IC50 (KRAS WT; [1]) [µM]	IC50 (KRAS G12D; [2]) [µM]	IC50 (KRAS G12S; [3]) [µM]	SMILES	IC50 (KRAS WT) [µM]	IC50 (KRAS G12D) [µM]	IC50 (KRAS G12S; PPI-HTRF-5 nM KRAS G12S) [µM]
< 5	< 5	< 5	Cc1nc(Cl)n(C(=O)N2CCC23CCN(c2nc(OC[C@@]45CCCN4C[C@H](F)C5)nc4c(F)c(-c5ccc(F)c6sc(N)c(C#N)c56)c(Cl)cc24)C3)n1 (stereo partly drawn) [Compound 311, 2-amino-4-(6-chloro-4-(1-(5-chloro-3-methyl-1H-1,2,4-triazole-1-carbonyl)-1,6-diazaspiro[3.4]octan-6-yl)-8-fluoro-2-(((2R,7aS)-2-fluorotetrahydro-1H-pyrrolizin-7a(5H)-yl)methoxy)quinazolin-7-yl)-7-fluorobenzo[b]thiophene-3-carbonitrile]			
< 5	< 5	< 5	N#Cc1c(N)sc2c(F)ccc(-c3c(Cl)cc4c(N5CCCCC6(CCN6C(=O)n6cncn6)C5)nc(OC[C@@]56CCCN5C[C@H](F)C6)nc4c3F)c12 (stereo partly drawn) [Compound 350]			
< 5	< 5	< 5	CCc1ncn(C(=O)N2CCC23CCN(c2nc(OC[C@@]45CCCN4C[C@H](F)C5)nc4c(F)c(-c5ccc(F)c6sc(N)c(C#N)c56)c(Cl)cc24)C3)n1 (stereo partly drawn) [Compound 314, 2-amino-4-(6-chloro-4-(1-(3-ethyl-1H-1,2,4-triazole-1-carbonyl)-1,6-diazaspiro[3.4]octan-6-yl)-8-fluoro-2-(((2R,7aS)-2-fluorotetrahydro-1H-pyrrolizin-7a(5H)-yl)methoxy)quinazolin-7-yl)-7-fluorobenzo[b]thiophene-3-carbonitrile]			
< 5	< 5	< 5	Cc1ncn(C(=O)N2CC[C@@]23CCN(c2nc(OC[C@@]45CCCN4C[C@H](F)C5)nc4c(F)c(-c5ccc(F)c6sc(N)c(C#N)c56)c(Cl)cc24)C3)n1 (atropisomer, axis not shown; (aS)) [Compound 338, (R)-2-amino-4-(6-chloro-8-fluoro-2-(((2R,7aS)-2-fluorotetrahydro-1H-pyrrolizin-7a(5H)-yl)methoxy)-4-((R)-1-(3-methyl-1H-1,2,4-triazole-1-carbonyl)-1,6-diazaspiro[3.4]octan-6-yl)quinazolin-7-yl)-7-fluorobenzo[b]thiophene-3-carbonitrile]			
< 5	< 5	< 5	N#Cc1c(N)sc2c(F)ccc(-c3c(Cl)cc4c(N5CC[C@@]6(CCN6C(=O)n6cnc(Cl)n6)C5)nc(OC[C@@]56CCCN5C[C@H](F)C6)nc4c3F)c12 (atropisomer, axis not shown; (aS)) [Compound 225, 2-amino-4-((R)-6-chloro-4-((R)-1-(3-chloro-1H-1,2,4-triazole-1-carbonyl)-1,6-diazaspiro[3.4]octan-6-yl)-8-fluoro-2-(((2R,7aS)-2-fluorotetrahydro-1H-pyrrolizin-7a(5H)-yl)methoxy)quinazolin-7-yl)-7-fluorobenzo[b]thiophene-3-carbonitrile]			
